In ChEMBL document CHEMBL1201862, “PubChem BioAssay data set” (2004):
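Exposure lasted 48 hours, with cells grown in 96-well plates and compounds tested at five concentrations. At the GI50, growth is halved.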 The source made the active and inactive calls. Rule as the data show it: active = GI50 up to about 1.1 µM and inactive = higher.

What was measured:
Assay in all cases: DTP human tumour cell line panel, 48 h
NCI-H226 = system: NCI-H226
EKVX = system: EKVX
HOP-92 = system: HOP-92
OVCAR-5 = system: OVCAR-5
TK-10 = system: TK-10
KM12 = system: KM12
HCC 2998 = system: HCC 2998
CAKI-1 = system: CAKI-1
Hs-578T = system: Hs-578T
HOP-62 = system: HOP-62
CCRF-CEM = system: CCRF-CEM
MDA-N = system: MDA-N
SK-MEL-5 = system: SK-MEL-5
MOLT-4 = system: MOLT-4
IGROV-1 = system: IGROV-1
786-0 = system: 786-0
A498 = system: A498
SNB-19 = system: SNB-19
NCI-H522 = system: NCI-H522
Malme-3M = system: Malme-3M
SN12C = system: SN12C
M14 = system: M14
SK-OV-3 = system: SK-OV-3
OVCAR-4 = system: OVCAR-4
SF-295 = system: SF-295
MDA-MB-435 = system: MDA-MB-435
OVCAR-3 = system: OVCAR-3
HCT-116 = system: HCT-116
UO-31 = system: UO-31
MCF7 = system: MCF7
A549 = system: A549
SW-620 = system: SW-620
UACC-257 = system: UACC-257
COLO 205 = system: COLO 205
PC-3 = system: PC-3
UACC-62 = system: UACC-62
SF-539 = system: SF-539
MDA-MB-231 = system: MDA-MB-231
BT-549 = system: BT-549
ACHN = system: ACHN
NCI-H460 = system: NCI-H460
HL-60 = system: HL-60
U-251 = system: U-251
SR = system: SR
K562 = system: K562
SK-MEL-28 = system: SK-MEL-28
NCI-H23 = system: NCI-H23
RXF 393 = system: RXF 393
DU-145 = system: DU-145
SF-268 = system: SF-268
T47D = system: T47D
SNB-75 = system: SNB-75
OVCAR-8 = system: OVCAR-8
HT-29 = system: HT-29
HCT-15 = system: HCT-15
SK-MEL-2 = system: SK-MEL-2
LOX IMVI = system: LOX IMVI
NCI/ADR-RES = system: NCI/ADR-RES
RPMI-8226 = system: RPMI-8226

For `CC1C2CC(C/C2=N/O)C1(C)C` (centres undefined), the GI50 (NCI-H226) was > 100 µM (inactive), the GI50 (EKVX) was > 100 µM (inactive) and the GI50 (HOP-92) was > 100 µM (inactive). For the same compound, the GI50 (OVCAR-5) was > 100 µM (inactive), the GI50 (TK-10) was > 100 µM (inactive) and the GI50 (KM12) was > 100 µM (inactive). For the same compound, the GI50 (HCC 2998) was > 100 µM (inactive), the GI50 (CAKI-1) was > 100 µM (inactive) and the GI50 (Hs-578T) was > 100 µM (inactive). The GI50 (HOP-62) was > 100 µM (inactive), the GI50 (CCRF-CEM) was > 100 µM (inactive) and the GI50 (MDA-N) was > 100 µM (inactive). For the same compound, the GI50 (SK-MEL-5) was > 100 µM (inactive), the GI50 (MOLT-4) was > 100 µM (inactive) and the GI50 (IGROV-1) was > 100 µM (inactive). The GI50 (786-0) was > 100 µM (inactive), the GI50 (A498) was > 100 µM (inactive) and the GI50 (SNB-19) was > 100 µM (inactive). The GI50 (NCI-H522) was > 100 µM (inactive), the GI50 (Malme-3M) was > 100 µM (inactive) and the GI50 (SN12C) was > 100 µM (inactive). For the same compound, the GI50 (M14) was > 100 µM (inactive), the GI50 (SK-OV-3) was > 100 µM (inactive) and the GI50 (OVCAR-4) was > 100 µM (inactive). The GI50 (SF-295) was > 100 µM (inactive), the GI50 (MDA-MB-435) was > 100 µM (inactive) and the GI50 (OVCAR-3) was > 100 µM (inactive). For the same compound, the GI50 (HCT-116) was > 100 µM (inactive), the GI50 (UO-31) was > 100 µM (inactive) and the GI50 (MCF7) was > 100 µM (inactive). For the same compound, the GI50 (A549) was > 100 µM (inactive), the GI50 (SW-620) was > 100 µM (inactive) and the GI50 (UACC-257) was > 100 µM (inactive). The GI50 (COLO 205) was > 100 µM (inactive), the GI50 (PC-3) was > 100 µM (inactive) and the GI50 (UACC-62) was > 100 µM (inactive). For the same compound, the GI50 (SF-539) was > 100 µM (inactive), the GI50 (MDA-MB-231) was > 100 µM (inactive) and the GI50 (BT-549) was > 100 µM (inactive). The GI50 (ACHN) was > 100 µM (inactive), the GI50 (NCI-H460) was > 100 µM (inactive) and the GI50 (HL-60) was > 100 µM (inactive). For the same compound, the GI50 (U-251) was > 100 µM (inactive), the GI50 (SR) was > 100 µM (inactive) and the GI50 (K562) was > 100 µM (inactive). For the same compound, the GI50 (SK-MEL-28) was > 100 µM (inactive), the GI50 (NCI-H23) was > 100 µM (inactive) and the GI50 (RXF 393) was > 100 µM (inactive). For the same compound, the GI50 (DU-145) was > 100 µM (inactive), the GI50 (SF-268) was > 100 µM (inactive) and the GI50 (T47D) was > 100 µM (inactive). The GI50 (SNB-75) was > 100 µM (inactive), the GI50 (OVCAR-8) was > 100 µM (inactive) and the GI50 (HT-29) was > 100 µM (inactive).

In the case of `O=C(O)CSc1cc(-c2ccccc2)nc2ccccc12`, the GI50 (EKVX) is reported as > 100 µM (inactive), the GI50 (HOP-92) is reported as 72.3 µM (inactive) and the GI50 (OVCAR-5) is reported as > 100 µM (inactive). For the same compound, the GI50 (TK-10) was 64.1 µM (inactive), the GI50 (KM12) was 30.5 µM (inactive) and the GI50 (CAKI-1) was 67.5 µM (inactive). The GI50 (HCT-15) was 43.6 µM, the GI50 (Hs-578T) was 19.4 µM (inactive) and the GI50 (HOP-62) was 48.2 µM (inactive). The GI50 (SK-MEL-2) was 26.5 µM (inactive), the GI50 (MDA-N) was 35.6 µM (inactive) and the GI50 (SK-MEL-5) was 30.4 µM (inactive). For the same compound, the GI50 (MOLT-4) was 46.3 µM (inactive), the GI50 (IGROV-1) was 57.7 µM (inactive) and the GI50 (786-0) was 47.1 µM (inactive). The GI50 (A498) was 28.5 µM (inactive), the GI50 (SNB-19) was > 100 µM (inactive) and the GI50 (NCI-H522) was 22.6 µM (inactive). For the same compound, the GI50 (Malme-3M) was 22.8 µM (inactive), the GI50 (SN12C) was 36.6 µM (inactive) and the GI50 (M14) was 50.2 µM (inactive). For the same compound, the GI50 (OVCAR-4) was 64 µM (inactive), the GI50 (LOX IMVI) was 46 µM (inactive) and the GI50 (SF-295) was 45.5 µM (inactive). The GI50 (MDA-MB-435) was 13.3 µM (inactive), the GI50 (OVCAR-3) was 21.7 µM (inactive) and the GI50 (HCT-116) was 5.41 µM (inactive). The GI50 (UO-31) was 42.8 µM (inactive), the GI50 (A549) was 55.5 µM (inactive) and the GI50 (SW-620) was 44.3 µM (inactive). The GI50 (UACC-257) was 71.9 µM (inactive), the GI50 (PC-3) was 35.2 µM (inactive) and the GI50 (UACC-62) was 48.3 µM (inactive). For the same compound, the GI50 (MDA-MB-231) was 98.9 µM (inactive), the GI50 (BT-549) was 32 µM (inactive) and the GI50 (ACHN) was 71.1 µM (inactive). For the same compound, the GI50 (NCI-H460) was 38.7 µM (inactive), the GI50 (HL-60) was 22.2 µM (inactive) and the GI50 (U-251) was 32.5 µM (inactive). For the same compound, the GI50 (SR) was 27.9 µM (inactive), the GI50 (K562) was 33.3 µM (inactive) and the GI50 (SK-MEL-28) was 85.1 µM (inactive). The GI50 (NCI-H23) was 44.7 µM (inactive), the GI50 (RXF 393) was 27.4 µM (inactive) and the GI50 (DU-145) was 34 µM (inactive). The GI50 (SF-268) was 35 µM (inactive), the GI50 (T47D) was 57.9 µM (inactive) and the GI50 (NCI/ADR-RES) was 34.2 µM (inactive). The GI50 (OVCAR-8) was 63.2 µM (inactive) and the GI50 (HT-29) was 36.2 µM (inactive).

`CC(C)(C)n1[nH]c(=O)n(C(C)(C)C)c1=O` was tested, and the GI50 (HOP-92) was > 100 µM (inactive), the GI50 (OVCAR-5) was > 100 µM (inactive) and the GI50 (TK-10) was > 100 µM (inactive). For the same compound, the GI50 (KM12) was > 100 µM (inactive), the GI50 (HCC 2998) was > 100 µM (inactive) and the GI50 (CAKI-1) was > 100 µM (inactive). The GI50 (HCT-15) was greater than 100 µM, the GI50 (Hs-578T) was > 100 µM (inactive) and the GI50 (CCRF-CEM) was > 10 µM (inactive). The GI50 (SK-MEL-2) was > 100 µM (inactive), the GI50 (MDA-N) was > 100 µM (inactive) and the GI50 (SK-MEL-5) was > 100 µM (inactive). For the same compound, the GI50 (MOLT-4) was > 100 µM (inactive), the GI50 (786-0) was > 100 µM (inactive) and the GI50 (A498) was > 100 µM (inactive). For the same compound, the GI50 (SNB-19) was > 100 µM (inactive), the GI50 (SN12C) was > 100 µM (inactive) and the GI50 (M14) was > 100 µM (inactive). For the same compound, the GI50 (SK-OV-3) was > 100 µM (inactive), the GI50 (OVCAR-4) was > 100 µM (inactive) and the GI50 (LOX IMVI) was > 100 µM (inactive). For the same compound, the GI50 (SF-295) was > 100 µM (inactive), the GI50 (MDA-MB-435) was > 100 µM (inactive) and the GI50 (OVCAR-3) was > 100 µM (inactive). For the same compound, the GI50 (HCT-116) was > 100 µM (inactive), the GI50 (UO-31) was > 100 µM (inactive) and the GI50 (MCF7) was > 100 µM (inactive). For the same compound, the GI50 (A549) was > 100 µM (inactive), the GI50 (SW-620) was > 100 µM (inactive) and the GI50 (UACC-257) was > 100 µM (inactive). For the same compound, the GI50 (COLO 205) was > 100 µM (inactive), the GI50 (PC-3) was > 100 µM (inactive) and the GI50 (RPMI-8226) was > 100 µM (inactive). For the same compound, the GI50 (UACC-62) was > 100 µM (inactive), the GI50 (SF-539) was > 100 µM (inactive) and the GI50 (MDA-MB-231) was > 100 µM (inactive). The GI50 (BT-549) was > 100 µM (inactive), the GI50 (ACHN) was > 100 µM (inactive) and the GI50 (NCI-H460) was > 100 µM (inactive). The GI50 (HL-60) was > 100 µM (inactive), the GI50 (U-251) was > 100 µM (inactive) and the GI50 (SR) was > 100 µM (inactive). For the same compound, the GI50 (K562) was > 100 µM (inactive), the GI50 (SK-MEL-28) was > 100 µM (inactive) and the GI50 (NCI-H23) was > 100 µM (inactive). For the same compound, the GI50 (RXF 393) was > 100 µM (inactive), the GI50 (DU-145) was > 100 µM (inactive) and the GI50 (SF-268) was > 100 µM (inactive). For the same compound, the GI50 (T47D) was > 100 µM (inactive) and the GI50 (SNB-75) was > 100 µM (inactive).
